Source: US5759827A, “Acylated oligopeptides for transfecting cells” (Hoffmann-La Roche Inc., priority 1995, dated 1998)
Square brackets hold non-standard residues; d marks the D form. Peptide text beside a SMILES is read from it. * marks the point of attachment. Palmitoyl = CCCCCCCCCCCCCCCC(=O)*; dDab = NCC[C@@H](N)C(=O)O; Orn = NCCC[C@H](N)C(=O)O; dDap = NC[C@@H](N)C(=O)O; Dab = NCC[C@H](N)C(=O)O; Dap = NC[C@H](N)C(=O)O; NHNH2 = NN*

Experiments:
Format in all cases: cell-based
COS-1 cells = assay: Transfection efficiency in COS-1 cells with a beta-galactosidase encoding plasmid; details: for Beta-galactosidase activity 0.2 μg DNA/well / Beta-galactosidase activity 1 μg DNA/well: formulated as in example 1 (DOPE liposomes added to compound/DNA), 48 h after transfection
Method: Dioleoyl phosphatidylethanolamine (DOPE, Avanti Polar Lipids Inc.) liposomes were prepared by drying under vacuum the lipid in solution in chloroform and then rehydrating the lipid film with 30 mM Tris Cl pH 8.5. Final lipid concentration was 2 mM. The lipid dispersion was subsequently sonicated for 10-15 min in a sonicator bath (Elgasonic, 50 kHz).
(§1) Twenty μg of plasmid DNA were diluted with 260 μl of distilled, sterile water in a polystyrene sterile tube. […] 140 μl of DOPE liposomes were then slowly added, drop by drop, to obtain a molar ratio between DOPE and Nγ-palmitoyl-D-(α,γ-diaminobutyryl)-L-(α,γ-diaminobutyric acid) hydrazide of 5:1. The complex was carefully mixed. The preparation was allowed to stand at room temperature during about 5 min and was then added to COS-1 cells grown in 96-well plates.
as §1, with “Mixed micelles of DOPE (2 μmoles) and dicaproyl phosphatidylcholine (15 μmotes) were prepared by drying the lipids under vacuum and then rehydrating the lipid film with 1 ml of 30 mM TrisCl buffer pH 8.5. Twenty” for “Twenty”, “pCH110” for “DNA”, “distilled” for “distilled, sterile”, “DOPE/dicyproyl PC mixed micelles” for “DOPE liposomes”, “added” for “added, drop by drop,”
The mixture was added to 20 μg of plasmid DNA in 260 μl of distilled water, so that the +/- charge ratio between Nγ-palmitoyl-D-(α,γ-diaminobutyryl)-L-(α,γ-diaminobutyric acid) hydrazide and plasmid DNA was 2:1. The complex was carefully mixed. The preparation was allowed to stand at room temperature during about 5 min and was then added to COS-1 cells grown in 96-well plates.

293-EBNA = assay: Transfection efficiency with a luciferase encoding vector, 293-EBNA cell-line
Method: (§2) A transfecting complex with Nγ-palmitoyl-D-(α,γ-diaminobutyryl)-L-(α,γ-diaminobutyric acid) hydrazide (compound A) was prepared as described in example 1. Lipofectamine™ complex was prepared following manufacturer's instructions. The transfection efficiency of both systems was compared in various cell-lines using a luciferase encoding vector.
(§3) Cells were transfected with a luciferase encoding plasmid and luciferase activity was measured 48 h after transfection. Results are expressed as relative light units.

CHO K1 = assay: Transfection efficiency with a luciferase encoding vector, CHO K1 cell-line
Method: as §2, §3

HeLa = assay: Transfection efficiency with a luciferase encoding vector, HeLa cell-line
Method: as §2, §3

LM tk- = assay: Transfection efficiency with a luciferase encoding vector, LM tk- cell-line
Method: as §2, §3

Molecule: CCCCCCCCCCCCCCCC(=O)N[C@@H](CCCNC(=N)N)C(=O)N[C@@H](CCCN)C(=O)OC [N^α palmitoyl-L arginyl-L ornithine methyl ester] (Palmitoyl-Arg-[Orn]-OMe)
- Beta-galactosidase activity 0.2 μg DNA/well (COS-1 cells): 0 μunits of beta-galactosidase p
- Beta-galactosidase activity 1 μg DNA/well (COS-1 cells): 870 μunits of beta-galactosidase p

Molecule: N^α oleoyl-L lysyl-L lysine ethyl ester
- Beta-galactosidase activity 0.2 μg DNA/well (COS-1 cells): 0 μunits of beta-galactosidase p
- Beta-galactosidase activity 1 μg DNA/well (COS-1 cells): 1333 μunits of beta-galactosidase p

Molecule: N^ε palmitoyl-L lysyl-L lysine methyl ester
- Beta-galactosidase activity 0.2 μg DNA/well (COS-1 cells): 0 μunits of beta-galactosidase p
- Beta-galactosidase activity 1 μg DNA/well (COS-1 cells): 100 μunits of beta-galactosidase p

Molecule: N^ε palmitoyl-L lysyl-L lysyl-L lysine methyl ester
- Beta-galactosidase activity 0.2 μg DNA/well (COS-1 cells): 0 μunits of beta-galactosidase p
- Beta-galactosidase activity 1 μg DNA/well (COS-1 cells): 1426 μunits of beta-galactosidase p

Molecule: CCCCCCCCCCCCCCCC(=O)N[C@@H](CCCNC(=N)N)C(=O)N[C@@H](CCCNC(=N)N)C(=O)OCC [N^α palmitoyl-L arginyl-L arginine ethyl ester] (Palmitoyl-Arg-Arg-OEt)
- Beta-galactosidase activity 0.2 μg DNA/well (COS-1 cells): 0 μunits of beta-galactosidase p
- Beta-galactosidase activity 1 μg DNA/well (COS-1 cells): 382 μunits of beta-galactosidase p

Molecule: CCCCCCCCCCCCCCCC(=O)NC[C@@H](N)C(=O)N[C@@H](CN)C(=O)OCC [N^γ palmitoyl-D (α,ε-diaminopropionyl)-L (α,ε-diaminopropionic acid) ethyl ester] (H-[dDap](Palmitoyl)-[Dap]-OEt)
- Beta-galactosidase activity 0.2 μg DNA/well (COS-1 cells): 359 μunits of beta-galactosidase p
- Beta-galactosidase activity 1 μg DNA/well (COS-1 cells): 0 μunits of beta-galactosidase p

Molecule: CCCCCCCCCCCCCCCC(=O)N[C@@H](CCCCN)C(=O)N[C@@H](CCCCN)C(=O)NCc1ccccc1 [N^α palmitoyl-L lysyl-L lysine benzylamide]
- Beta-galactosidase activity 0.2 μg DNA/well (COS-1 cells): 510 μunits of beta-galactosidase p
- Beta-galactosidase activity 1 μg DNA/well (COS-1 cells): 845 μunits of beta-galactosidase p

Molecule: CCCCCCCCCCCCCCCC(=O)NCC[C@@H](N)C(=O)N[C@@H](CCN)C(=O)NN [cpd A, Nγ-palmitoyl-D-(α,γ-diaminobutyryl)-L-(α,γ-diaminobutyric acid) hydrazide] (H-[dDab](Palmitoyl)-[Dab]-NHNH2)
- transfection efficiency expressed as beta-galactosidase activity (COS-1 cells; Example 2: DOPE/dicaproyl phosphatidylcholine mixed micelles, plasmid pCH110, 0.2 μg of DNA per well): 7280 μUnits per well
- transfection efficiency expressed as beta-galactosidase activity (COS-1 cells; Example 2: DOPE/dicaproyl phosphatidylcholine mixed micelles, plasmid pCH110, 1 μg of DNA per well): 6375 μUnits per well
- transfection efficiency expressed as beta-galactosidase activity (COS-1 cells; Example 3: compound premixed with DOPE liposomes, then added to DNA, 0.2 μg of DNA per well): 4205 μUnits per well
- transfection efficiency expressed as beta-galactosidase activity (COS-1 cells; Example 3: compound premixed with DOPE liposomes, then added to DNA, 1 μg of DNA per well): 7880 μUnits per well
- Beta-galactosidase activity 0.2 μg DNA/well (COS-1 cells): 5772 μunits of beta-galactosidase p
- Beta-galactosidase activity 1 μg DNA/well (COS-1 cells): 9942 μunits of beta-galactosidase p
- enhancement cpd A over Lipofectamine (293-EBNA): 5
- enhancement cpd A over Lipofectamine (CHO K1): 33
- enhancement cpd A over Lipofectamine (HeLa): 4
- enhancement cpd A over Lipofectamine (LM tk-): 12

Molecule: CCCCCCCCCCCCCCCC(=O)NCC[C@H](N)C(=O)N[C@H](CCN)C(=O)N[C@H](CCN)C(=O)N[C@@H](CCN)C(=O)NN [N^γ palmitoyl-L (α,γ-diaminobutyryl)-D (α,γ-diaminobutyryl)-D (α,γ-diaminobutyryl)-L (α,γ-diaminobutyric acid) hyrazide] (H-[Dab](Palmitoyl)[dDab][dDab][Dab]-NHNH2)
- Beta-galactosidase activity 0.2 μg DNA/well (COS-1 cells): 497 μunits of beta-galactosidase p
- Beta-galactosidase activity 1 μg DNA/well (COS-1 cells): 542 μunits of beta-galactosidase p

Molecule: N^α palmitoyl-L lysyl-L lysine methyl ester
- Beta-galactosidase activity 0.2 μg DNA/well (COS-1 cells): 0 μunits of beta-galactosidase p
- Beta-galactosidase activity 1 μg DNA/well (COS-1 cells): 150 μunits of beta-galactosidase p

Molecule: N^α methyl arachidoyl-L lysyl-L lysine methyl ester
- Beta-galactosidase activity 0.2 μg DNA/well (COS-1 cells): 0 μunits of beta-galactosidase p
- Beta-galactosidase activity 1 μg DNA/well (COS-1 cells): 148 μunits of beta-galactosidase p

Molecule: CCCCCCCCCCCCCCCC(=O)N[C@@H](CCN)C(=O)NN [N^α palmitoyl-L (α,γ-diaminobutyric acid) hydrazide]
- Beta-galactosidase activity 1 μg DNA/well (COS-1 cells): 1411 μunits of beta-galactosidase p

Molecule: N^α palmitoyl-L lysyl-L lysine ethyl ester
- Beta-galactosidase activity 0.2 μg DNA/well (COS-1 cells): 138 μunits of beta-galactosidase p
- Beta-galactosidase activity 1 μg DNA/well (COS-1 cells): 424 μunits of beta-galactosidase p

Molecule: CCCCCCCCCCCCCCCC(=O)N[C@@H](CCCCN)C(=O)N[C@@H](CCCCN)C(=O)O [N^α palmitoyl-L lysyl-L lysine]
- Beta-galactosidase activity 0.2 μg DNA/well (COS-1 cells): 0 μunits of beta-galactosidase p
- Beta-galactosidase activity 1 μg DNA/well (COS-1 cells): 530 μunits of beta-galactosidase p

Molecule: N^γ γ palmitoyl-D (α,ε-diaminopropionyl)-L (α,ε-diaminopropionic acid) hydrazide
- Beta-galactosidase activity 0.2 μg DNA/well (COS-1 cells): 0 μunits of beta-galactosidase p
- Beta-galactosidase activity 1 μg DNA/well (COS-1 cells): 3671 μunits of beta-galactosidase p

Molecule: CCCCCCCCCCCCCCCC(=O)N[C@@H](CCCCN)C(=O)N[C@@H](CO)C(=O)OC [N^α palmitoyl-L lysyl-L serine methyl ester]
- Beta-galactosidase activity 0.2 μg DNA/well (COS-1 cells): 0 μunits of beta-galactosidase p
- Beta-galactosidase activity 1 μg DNA/well (COS-1 cells): 219 μunits of beta-galactosidase p

Molecule: CCCCCCCCCCCCCCCC(=O)N[C@@H](CCCN)C(=O)N[C@@H](CCCN)C(=O)OC [N^α palmitoyl-L ornithyl-L ornithine methyl ester]
- Beta-galactosidase activity 0.2 μg DNA/well (COS-1 cells): 44 μunits of beta-galactosidase p
- Beta-galactosidase activity 1 μg DNA/well (COS-1 cells): 789 μunits of beta-galactosidase p

Molecule: CCCCCCCCCCCCCCCC(=O)NCC[C@H](N)C(=O)N[C@@H](CCN)C(=O)N[C@@H](CCN)C(=O)N[C@@H](CCN)C(=O)NN [N^γ palmitoyl-L (α,γ-diaminobutyryl)-L (α,γ-diaminobutyryl)-L (α,γ-diaminobutyryl)-L (α,γ-diaminobutyric acid) hydrazide] (H-[Dab](Palmitoyl)[Dab][Dab][Dab]-NHNH2)
- Beta-galactosidase activity 0.2 μg DNA/well (COS-1 cells): 1800 μunits of beta-galactosidase p
- Beta-galactosidase activity 1 μg DNA/well (COS-1 cells): 7835 μunits of beta-galactosidase p

Molecule: CCCCCCCCCCCCCCCC(=O)N[C@@H](CCN)C(=O)N[C@@H](CCN)C(=O)NN [N^α palmitoyl-L (α,γ-diaminobutyryl)-L (α,γ-diaminobutyric acid) hydrazide] (Palmitoyl-[Dab]-[Dab]-NHNH2)
- Beta-galactosidase activity 0.2 μg DNA/well (COS-1 cells): 2742 μunits of beta-galactosidase p
- Beta-galactosidase activity 1 μg DNA/well (COS-1 cells): 3519 μunits of beta-galactosidase p

Molecule: N^α palmitoyl-L (α,γ-diaminobutyryl)-L lysine methyl ester
- Beta-galactosidase activity 1 μg DNA/well (COS-1 cells): 791 μunits of beta-galactosidase p

Molecule: CCCCCCCCCCCCCCCC(=O)NCC[C@@H](N)C(=O)N[C@H](CCN)C(=O)N[C@@H](CCN)C(=O)NN [N^γ palmitoyl-D (α,γ-diaminobutyryl)-D (α,γ-diaminobutyryl)-L (α,γ-diaminobutyric acid) hydrazide] (H-[dDab](Palmitoyl)-[dDab]-[Dab]-NHNH2)
- Beta-galactosidase activity 0.2 μg DNA/well (COS-1 cells): 1847 μunits of beta-galactosidase p
- Beta-galactosidase activity 1 μg DNA/well (COS-1 cells): 7768 μunits of beta-galactosidase p

Molecule: CCCCCCCCCCCCCCCC(=O)N[C@@H](CCCCN)C(=O)N[C@@H](CCCCN)C(=O)N[C@@H](CCCCN)C(=O)NN [N^α palmitoyl-L lysyl-L lysyl-L lysine hydrazide]
- Beta-galactosidase activity 0.2 μg DNA/well (COS-1 cells): 136 μunits of beta-galactosidase p
- Beta-galactosidase activity 1 μg DNA/well (COS-1 cells): 2232 μunits of beta-galactosidase p
